Laboratory results from BigSolDB 2.1.

Compound: Cc1cc(=O)c(C(=O)N[C@@H](C(=O)N[C@@H]2C(=O)N3C(C(=O)O)=C(CSc4nnnn4C)CS[C@H]23)c2ccc(O)cc2)c[nH]1
- solubility (mole fraction) (in ethanol, 278.2 K): 0.000445
- solubility (mole fraction) (in ethanol, 283.2 K): 0.000508
- solubility (mole fraction) (in ethanol, 288.2 K): 0.000592
- solubility (mole fraction) (in ethanol, 293.2 K): 0.00069
- solubility (mole fraction) (in ethanol, 298.2 K): 0.000834
- solubility (mole fraction) (in ethanol, 303.2 K): 0.00101
- solubility (mole fraction) (in isopropanol, 278.2 K): 0.000118
- solubility (mole fraction) (in isopropanol, 283.2 K): 0.00015
- solubility (mole fraction) (in isopropanol, 288.2 K): 0.000187
- solubility (mole fraction) (in isopropanol, 293.2 K): 0.000236
- solubility (mole fraction) (in isopropanol, 298.2 K): 0.000297
- solubility (mole fraction) (in isopropanol, 303.2 K): 0.000376
- solubility (mole fraction) (in n-butanol, 278.2 K): 9.53e-05
- solubility (mole fraction) (in n-butanol, 283.2 K): 0.000115
- solubility (mole fraction) (in n-butanol, 288.2 K): 0.000139
- solubility (mole fraction) (in n-butanol, 293.2 K): 0.000166
- solubility (mole fraction) (in n-butanol, 298.2 K): 0.0002
- solubility (mole fraction) (in n-butanol, 303.2 K): 0.000245
- solubility (mole fraction) (in n-propanol, 278.2 K): 0.000242
- solubility (mole fraction) (in n-propanol, 283.2 K): 0.00027
- solubility (mole fraction) (in n-propanol, 288.2 K): 0.000305
- solubility (mole fraction) (in n-propanol, 293.2 K): 0.000348
- solubility (mole fraction) (in n-propanol, 298.2 K): 0.000407
- solubility (mole fraction) (in n-propanol, 303.2 K): 0.000479
- solubility (mole fraction) (in water, 278.2 K): 4.04e-07
- solubility (mole fraction) (in water, 283.2 K): 4.82e-07
- solubility (mole fraction) (in water, 288.2 K): 5.8e-07
- solubility (mole fraction) (in water, 293.2 K): 6.99e-07
- solubility (mole fraction) (in water, 298.2 K): 8.5e-07
- solubility (mole fraction) (in water, 303.2 K): 1.04e-06
